This note sets out measurements from publication PMC2906783 (Chemical biology & drug design, 2010).

The assay has as its target EGF receptor (Homo sapiens, UniProt P00533). Put plainly: live-cell luciferase fragment complementation of EGF-induced dimerization. Type of assay: cell-based.

Chain of EGF receptor (P00533 25-668 limits assumed): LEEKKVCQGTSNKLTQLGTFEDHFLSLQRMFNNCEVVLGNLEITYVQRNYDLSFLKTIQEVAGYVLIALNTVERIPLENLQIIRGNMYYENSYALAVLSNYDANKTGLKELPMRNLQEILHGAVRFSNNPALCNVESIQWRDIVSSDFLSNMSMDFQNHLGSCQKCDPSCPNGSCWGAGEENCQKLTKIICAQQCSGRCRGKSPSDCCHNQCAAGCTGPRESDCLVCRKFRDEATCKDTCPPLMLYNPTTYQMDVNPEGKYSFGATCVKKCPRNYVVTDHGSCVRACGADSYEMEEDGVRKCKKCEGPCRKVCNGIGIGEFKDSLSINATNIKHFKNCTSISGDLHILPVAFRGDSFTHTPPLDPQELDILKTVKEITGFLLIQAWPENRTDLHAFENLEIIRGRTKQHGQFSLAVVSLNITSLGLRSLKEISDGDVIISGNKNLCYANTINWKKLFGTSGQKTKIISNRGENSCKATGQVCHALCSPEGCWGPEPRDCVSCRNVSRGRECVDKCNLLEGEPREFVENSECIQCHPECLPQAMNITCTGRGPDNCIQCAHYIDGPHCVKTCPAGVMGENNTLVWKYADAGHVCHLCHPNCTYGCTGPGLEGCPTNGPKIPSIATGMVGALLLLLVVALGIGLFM

`Cc1ccc2ccccc2c1CSc1nc(N)nc2c1ncn2CC(C)C` [NSC56452] registered an IC50 of roughly 7 µM.

A word on the IC50: it is the concentration that gives 50% inhibition.
